Where “and” joins values, the source holds several entries; their conditions need not be identical. Equal values may be shown once. Toxic doses and inconclusive results are not listed. The calls were made as follows: active = survival T/C of 150% or more; inactive = T/C below 125% in these data.
Test system: P388 leukemia ip, CD2F1 mice, survival T/C
Test: NCI In Vivo Anticancer Drug Screen. Data for tumor model P388 Leukemia (intraperitoneal) in CD2F1 (CDF1) mice
Conditions: endpoint: median survival time, higher = longer survival
In short: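 Mice carrying the transplanted tumor received test compound or vehicle. Survival was recorded in each group, and the value is the treated-group measurement divided by that of the vehicle-treated control group.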

[1] = dose: 25.0 mg/kg/injection, schedule: Q04DX003 (ip), vehicle: Klucel (hydroxypropylcellulose) (HPC)
[2] = dose: 50.0 mg/kg/injection, schedule: Q04DX003 (ip), vehicle: Klucel (hydroxypropylcellulose) (HPC)
[3] = dose: 50.0 mg/kg/injection, schedule: Q01DX009 (ip), vehicle: saline with Tween-80
[4] = dose: 100.0 mg/kg/injection, schedule: Q01DX009 (ip), vehicle: saline with Tween-80
[5] = dose: 200.0 mg/kg/injection, schedule: Q01DX009 (ip), vehicle: saline with Tween-80

Measured: T/C

Oc1ccccc1
inactive: dose: 0.12 % in 0.5 ml injection vol, schedule: Q01DX009 (ip), vehicle: water 103 % of control | dose: 0.25 % in 0.5 ml injection vol, schedule: Q01DX009 (ip), vehicle: water 103 % of control | dose: 0.5 % in 0.5 ml injection vol, schedule: Q01DX009 (ip), vehicle: water 111 % of control | dose: 1.0 % in 0.5 ml injection vol, schedule: Q01DX009 (ip), vehicle: water 118 % of control

CN1C(=O)C(=C2C=C(c3ccccc3)C(C#N)(c3ccccc3)C(c3ccccc3)=C2)C(=O)N(C)C1=O (centres undefined)
inactive: dose: 50.0 mg/kg/injection, schedule: Q01DX005 (ip), vehicle: Klucel (hydroxypropylcellulose) (HPC) 106 % of control | dose: 100.0 mg/kg/injection, schedule: Q01DX005 (ip), vehicle: Klucel (hydroxypropylcellulose) (HPC) 107 % of control | dose: 200.0 mg/kg/injection, schedule: Q01DX005 (ip), vehicle: Klucel (hydroxypropylcellulose) (HPC) 101 % of control

COc1cc(/C=C/C2=C(C)C(=O)CC(c3cc(OC)c(OC)c(OC)c3)C2C)cc(OC)c1OC (centres undefined)
inactive: dose: 12.5 mg/kg/injection, schedule: Q04DX003 (ip), vehicle: Klucel (hydroxypropylcellulose) (HPC) 100 % of control | [1] 101 % of control | [2] 97 % of control

[Cl][Rh][Cl].[NH-]c1nc(-c2ccccc2)cs1.[NH-]c1nc(-c2ccccc2)cs1.[NH-]c1nc(-c2ccccc2)cs1.[NH-]c1nc(-c2ccccc2)cs1
inactive: dose: 100.0 mg/kg/injection, schedule: Q01DX001 (ip), vehicle: DMSO 97 % of control | dose: 200.0 mg/kg/injection, schedule: Q01DX001 (ip), vehicle: DMSO 94 % of control | dose: 400.0 mg/kg/injection, schedule: Q01DX001 (ip), vehicle: DMSO 98 % of control

Cc1nc(O)c([N+](=O)[O-])c(=O)[nH]1
inactive: dose: 25.0 mg/kg/injection, schedule: Q01DX009 (ip), vehicle: other 99 % of control | dose: 50.0 mg/kg/injection, schedule: Q01DX009 (ip), vehicle: other 98 % of control | dose: 100.0 mg/kg/injection, schedule: Q01DX009 (ip), vehicle: other 110 % of control | dose: 200.0 mg/kg/injection, schedule: Q01DX009 (ip), vehicle: other 102 % of control

CC[C@@]12CN3CCc4c([nH]c5ccccc45)[C@@](C(=O)OC)(c4cc5c(cc4OC)N(C=O)[C@H]4[C@@](O)(C(=O)OC)[C@H](OC(C)=O)[C@]6(CC)C=CCN7CC[C@]54[C@@H]76)C[C@H](C3=O)[C@@H]1O2
inactive: dose: 4.0 mg/kg/injection, schedule: Q01DX001 (ip), vehicle: water 113 % of control and 118 % of control | dose: 8.0 mg/kg/injection, schedule: Q01DX001 (ip), vehicle: water 115 % of control and 116 % of control | dose: 32.0 mg/kg/injection, schedule: Q01DX001 (ip), vehicle: water 118 % of control

COc1cc(O)c(C(C)c2ccccc2)cc1N=NC(N)=O (centres undefined)
inactive: dose: 6.25 mg/kg/injection, schedule: Q01DX005 (ip), vehicle: saline with Tween-80 96 % of control | dose: 12.5 mg/kg/injection, schedule: Q01DX005 (ip), vehicle: saline with Tween-80 90 % of control | dose: 25.0 mg/kg/injection, schedule: Q01DX005 (ip), vehicle: saline with Tween-80 89 % of control

CCN(CC)C(=O)C(F)C(F)(F)C(F)(F)COCc1ccccc1 (centres undefined)
inactive: [3] 99 % of control | [4] 100 % of control | [5] 100 % of control

COc1ccc(Cc2nc(C)cc3cc(OC)c(OC)cc23)cc1OC
inactive: dose: 50.0 mg/kg/injection, schedule: Q01DX009 (ip), vehicle: water 111 % of control | dose: 100.0 mg/kg/injection, schedule: Q01DX009 (ip), vehicle: water 102 % of control | dose: 200.0 mg/kg/injection, schedule: Q01DX009 (ip), vehicle: water 89 % of control

O=C1Cc2ccccc2N1C1c2ccccc2C=Cc2ccccc21
inactive: [3] 95 % of control | [4] 86 % of control | [5] 89 % of control

COc1cc2c(c(OC)c1OC)C(=O)CCC2
inactive: [1] 100 % of control | [2] 104 % of control | dose: 100.0 mg/kg/injection, schedule: Q04DX003 (ip), vehicle: Klucel (hydroxypropylcellulose) (HPC) 92 % of control and 93 % of control | dose: 400.0 mg/kg/injection, schedule: Q04DX003 (ip), vehicle: Klucel (hydroxypropylcellulose) (HPC) 90 % of control

O=C(C(c1ccccc1)c1ccccc1)N1CCCCC1c1ccccc1 (centres undefined)
inactive: dose: 50.0 mg/kg/injection, schedule: Q01DX005 (ip), vehicle: saline with Tween-80 102 % of control | dose: 100.0 mg/kg/injection, schedule: Q01DX005 (ip), vehicle: saline with Tween-80 92 % of control | dose: 200.0 mg/kg/injection, schedule: Q01DX005 (ip), vehicle: saline with Tween-80 97 % of control
